{"source": "paper PMC3660081", "about": "(Annals of Oncology, 2013)", "key": {"[1]": {"assay": "Drug-related treatment-emergent adverse events", "format": "in vivo, human", "settings": "for Administration interrupted (omitted) / Dose reduction due to adverse events: % of administered cycles"}, "[2]": {"assay": "Pharmacokinetics of chemotherapy components before", "settings": "for Effect of regorafenib on pharmacokinetics/exposure, in words: cycle 2 versus cycle 1; for Cmax in cycle 2 versus cycle 1, in words: following regorafenib dosing"}, "[3]": {"settings": "cited from earlier work"}, "[4]": {"tested_on": "UGT1A9", "settings": "cited from earlier work"}, "[5]": {"tested_on": "colorectal cancer after progression on standard therapy", "settings": "versus best supportive care 5.0 months; cited from earlier work"}, "[6]": {"tested_on": "heavily pretreated colorectal cancer", "settings": "single-agent regorafenib; cited from earlier work"}, "[7]": {"tested_on": "UGT1A1", "settings": "cited from earlier work"}, "[8]": {"settings": "after versus before regorafenib dosing"}, "[9]": {"settings": "Cycle 1 day 1, before regorafenib dosing"}, "[10]": {"settings": "Cycle 2 day 1, after regorafenib dosing"}}, "note": "Entries after “also recorded” stand apart in the source; their conditions may differ.", "data": [{"smiles": "CCc1c2c(nc3ccc(OC(=O)N4CCC(N5CCCCC5)CC4)cc13)-c1cc3c(c(=O)n1C2)COC(=O)[C@]3(O)CC", "note": "[Irinotecan, irinotecan]", "values": [{"measurement": "Administration interrupted (omitted)", "setting": "[1]", "value": 5, "unit": "%"}, {"measurement": "Dose reduction due to adverse events", "setting": "[1]", "value": 12, "unit": "%"}, {"measurement": "AUC ratio (90% CI) Cycle 2/Cycle 1", "setting": "[2]; [8]", "value": 1.28}, {"measurement": "Cmax ratio (90% CI) Cycle 2/Cycle 1", "setting": "[2]; [8]", "value": "1.22 (0.80–1.85)"}, {"measurement": "Effect of regorafenib on pharmacokinetics/exposure, in words", "setting": "[2]", "value": "increased exposure; also recorded: increased significantly"}, {"measurement": "Cmax in cycle 2 versus cycle 1, in words", "setting": "[2]", "value": "only slightly increased"}, {"measurement": "AUC", "setting": "[2]; human, in vivo, geometric mean, Cycle 1 day 1, before regorafenib dosing", "value": 10700, "unit": "ng·h/mL"}, {"measurement": "AUC", "setting": "[2]; human, in vivo, geometric mean, Cycle 2 day 1, after regorafenib dosing", "value": 13800, "unit": "ng·h/mL"}, {"measurement": "Cmax", "setting": "[2]; human, in vivo, Cmax, geometric mean, Cycle 1 day 1, before regorafenib dosing", "value": 1900, "unit": "ng/mL"}]}, {"smiles": "CNC(=O)c1cc(Oc2ccc(NC(=O)Nc3ccc(Cl)c(C(F)(F)F)c3)c(F)c2)ccn1", "note": "[Regorafenib]", "values": [{"measurement": "Half-life", "setting": "[3]", "value": 25, "unit": "h"}, {"measurement": "Inhibition of UGT1A9, in words", "setting": "[4]", "value": "strong inhibitor"}, {"measurement": "Overall survival (OS)", "setting": "[5]", "value": 6.4, "unit": "months"}, {"measurement": "Tolerability in combination with chemotherapy (FOLFOX or FOLFIRI), in words", "setting": "[1]; regorafenib 160 mg once daily days 4–10 and 18–24", "value": "acceptable tolerability"}, {"measurement": "Stable disease", "setting": "[6]", "value": "19 of 27"}, {"measurement": "Inhibition of UGT1A1, in words", "setting": "[7]", "value": "strong inhibitor"}]}, {"smiles": "CCc1c2c(nc3ccc(O)cc13)-c1cc3c(c(=O)n1C2)COC(=O)[C@]3(O)CC", "note": "[SN-38]", "values": [{"measurement": "AUC, geometric mean", "setting": "[2]; [9]", "value": 400, "unit": "ng·h/mL"}, {"measurement": "t½, geometric mean", "setting": "[2]; [9]", "value": 16.8, "unit": "h"}, {"measurement": "AUC, geometric mean", "setting": "[2]; [10]", "value": 500, "unit": "ng·h/mL"}, {"measurement": "t½, geometric mean", "setting": "[2]; [10]", "value": 19.3, "unit": "h"}, {"measurement": "AUC ratio (90% CI) Cycle 2/Cycle 1", "setting": "[2]; [8]", "value": 1.44}, {"measurement": "Cmax ratio (90% CI) Cycle 2/Cycle 1", "setting": "[2]; [8]", "value": "0.91 (0.55–1.50)"}, {"measurement": "Effect of regorafenib on pharmacokinetics/exposure, in words", "setting": "[2]", "value": "increased exposure; also recorded: increased significantly"}, {"measurement": "Cmax in cycle 2 versus cycle 1, in words", "setting": "[2]", "value": "unchanged"}]}, {"smiles": "NC(=O)c1cc(Oc2ccc(NC(=O)Nc3ccc(Cl)c(C(F)(F)F)c3)c(F)c2)cc[n+]1[O-]", "note": "[M5]", "values": [{"measurement": "Half-life", "setting": "[3]", "value": "51 to 64", "unit": "h"}]}, {"smiles": "O=C1[O][Pt]2([NH][C@@H]3CCCC[C@H]3[NH]2)[O]C1=O", "note": "[Oxaliplatin, oxaliplatin]", "values": [{"measurement": "Administration interrupted (omitted)", "setting": "[1]", "value": 11, "unit": "%"}, {"measurement": "Dose reduction due to adverse events", "setting": "[1]", "value": 11, "unit": "%"}, {"measurement": "Effect of regorafenib on pharmacokinetics/exposure, in words", "setting": "[2]", "value": "no significant effect"}]}, {"smiles": "O=c1[nH]cc(F)c(=O)[nH]1", "note": "[5-fluorouracil]", "values": [{"measurement": "Administration interrupted (omitted)", "setting": "[1]", "value": 8, "unit": "%"}, {"measurement": "Dose reduction due to adverse events", "setting": "[1]", "value": 18, "unit": "%"}, {"measurement": "Cmax ratio (90% CI) Cycle 2/Cycle 1", "setting": "[2]; FOLFIRI regimen", "value": "0.92 (0.06–13.9)"}, {"measurement": "t½, geometric mean", "setting": "[2]; FOLFIRI regimen, Cycle 1, before regorafenib dosing", "value": 0.2, "unit": "H"}, {"measurement": "AUC ratio (90% CI) Cycle 2/Cycle 1", "setting": "[2]; FOLFOX regimen", "value": "1.06 (0.69–1.64)"}, {"measurement": "Cmax ratio (90% CI) Cycle 2/Cycle 1", "setting": "[2]; FOLFOX regimen", "value": "0.89 (0.50–1.61)"}, {"measurement": "t½, geometric mean", "setting": "[2]; FOLFOX regimen, Cycle 1, before regorafenib dosing", "value": 0.4, "unit": "H"}, {"measurement": "t½, geometric mean", "setting": "[2]; FOLFOX regimen, Cycle 2, after regorafenib dosing", "value": 2.4, "unit": "H"}, {"measurement": "Effect of regorafenib on pharmacokinetics/exposure, in words", "setting": "[2]", "value": "no significant effect"}]}, {"smiles": "CNC(=O)c1cc(Oc2ccc(NC(=O)Nc3ccc(Cl)c(C(F)(F)F)c3)c(F)c2)cc[n+]1[O-]", "note": "[M2]", "values": [{"measurement": "Half-life", "setting": "[3]", "value": "26 to 28", "unit": "h"}]}]}
